Experimental findings from patent US20100323990A1, “SHIP 1 MODULATOR PRODRUGS” (THE UNIVERSITY OF BRITISH COLUMBIA, priority 2006, published 2010) are described below.

In assay [1] the target is T1, ΔC2 SHIP (Homo sapiens, UniProt Q92835, DEL725-863).
T1 construct: His6; made in house; host or cells: mammalian expression vector pME18S
T1 sequence (Q92835 with tags, fused parts or gaps DEL725-863): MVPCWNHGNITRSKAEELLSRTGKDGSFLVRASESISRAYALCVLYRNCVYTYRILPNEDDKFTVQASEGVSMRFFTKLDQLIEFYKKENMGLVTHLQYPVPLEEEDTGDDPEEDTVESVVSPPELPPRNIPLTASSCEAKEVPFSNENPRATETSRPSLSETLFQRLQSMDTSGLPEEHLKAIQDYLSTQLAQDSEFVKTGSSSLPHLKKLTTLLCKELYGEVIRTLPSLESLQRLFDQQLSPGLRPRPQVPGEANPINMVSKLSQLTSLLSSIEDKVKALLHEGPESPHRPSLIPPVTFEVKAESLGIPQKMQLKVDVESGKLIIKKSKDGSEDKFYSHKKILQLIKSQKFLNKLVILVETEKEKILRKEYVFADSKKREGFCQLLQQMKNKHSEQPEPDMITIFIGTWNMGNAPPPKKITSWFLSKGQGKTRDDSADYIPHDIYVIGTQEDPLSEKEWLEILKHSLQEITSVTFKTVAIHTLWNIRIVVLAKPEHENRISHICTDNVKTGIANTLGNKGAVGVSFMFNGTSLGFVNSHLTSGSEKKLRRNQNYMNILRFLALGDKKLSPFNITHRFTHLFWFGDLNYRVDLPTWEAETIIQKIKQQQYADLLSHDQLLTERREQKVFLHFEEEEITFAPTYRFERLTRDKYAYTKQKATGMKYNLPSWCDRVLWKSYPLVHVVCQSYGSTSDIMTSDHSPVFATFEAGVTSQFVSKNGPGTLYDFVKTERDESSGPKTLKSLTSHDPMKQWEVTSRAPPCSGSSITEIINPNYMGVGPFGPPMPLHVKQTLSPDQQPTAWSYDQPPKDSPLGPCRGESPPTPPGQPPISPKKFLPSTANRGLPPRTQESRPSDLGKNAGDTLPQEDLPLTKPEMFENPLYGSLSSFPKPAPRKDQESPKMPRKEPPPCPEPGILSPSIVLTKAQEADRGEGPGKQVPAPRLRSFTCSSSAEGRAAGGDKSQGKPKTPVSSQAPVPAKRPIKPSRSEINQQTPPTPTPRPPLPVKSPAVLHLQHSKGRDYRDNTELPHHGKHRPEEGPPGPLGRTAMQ
The experiment in a line: SHIP enzyme assay with C2 domain deleted SHIP. The settings on record: PI-3,4-P2 20 μM, Compound 100 3 μM, 30 μM IP4. It is filed as biochemical. An excerpt: A His6 tagged SHIP ΔC2 domain deletion mutant (deleting residues 725 to 863) in the mammalian expression vector pME18S was generated by a standard PCR-based methodology. An N-terminal His6 C2 domain construct was also generated by PCR inserted into the pET28C bacterial expression vector using EcoRI and NdeI restriction sites.
The allosteric regulation of enzymes has remained under-appreciated primarily because allosteric effectors are not easy to find. The molecular mechanism by which Compound 100 activated SHIP was investigated, first by performing classical enzyme kinetic analysis of its phosphatase activity. Activity measurements were performed with substrate concentrations from 10-100 μM.
The SHIP protein contains a C2 domain located at the carboxyterminal end of its phosphatase domain. […] SHIP lacking its the C2 domain (ΔC2 SHIP) was prepared.

For assay [2], the target named is T1, ΔC2 SHIP. The experiment in a line: Scintillation proximity assay, SHIP lacking its C2 domain. The settings on record: SPA beads. In kind it is binding. Here is the method: Compound 100 was radiolabelled with tritium by GE Healthcare (Piscataway, N.J.) to a specific activity of 42 Ci/mmole. Copper chelate (His-Tag) YSi SPA Scintillation Beads (GE ealthcare, Piscataway, N.J.) were diluted in 0.25% BSA/TBS to 1.5 mg/mL and recombinant, His6-tagged protein added at the indicated concentrations: wild-type (1 pM), ΔC2 SHIP enzyme (1 pM) or C2 domain (10 nM). Protein was allowed to bind 1 h at 23° C., and 250 μg of beads were aliquoted per well of a 96-well plate. 5 μCi of [^3H]-Compound 100 was added per well, the plate gently agitated for 30 min and the amount of bead associated radioactivity quantified by counting in a Wallac BetaPlate plate scintillation counter.
Isolated recombinant, His6-tagged C2 domain was expressed and its PI-3,4-P2 binding ability was determined using protein lipid overlay assays. Purified C2 domain was incubated with membrane strips spotted with PI-3,4-P2 and bound protein detected using an anti-His6 antibody. As shown in FIG. 11C the C2 domain bound PI-3,4-P2 and this binding was inhibited by Compound 100, consistent with both Compound 100 and PI-3,4-P2 interacting with the C2 domain at a common binding site.
On the technique in general: Scintillation proximity formats need no separation of bound from free tracer.

The test system of assay [3] is 100 protein kinase and phosphatase targets. The experiment in a line: Profiling against 100 protein kinase and phosphatase targets (SignalChem). In kind it is biochemical. The settings on record: 2 μM final concentration; changes <25% not considered significant. How it is done:
Compound profiling activity was undertaken using 100 protein kinase and phosphatase targets by SignalChem (Richmond, BC, Canada. www.signalchem.com) against compound Compound 100 (2 μM final concentration). Protein kinase assays were performed in the presence of 50 μM ATP at 30° C. for 15 min. Protein phosphatase activites were determined using pNPP as substrate and were also performed at 37° C. for 15 min. The activity of the enzymes in the presence of Compound 100 was compared to that in the vehicle control and expressed as a % change in activity relative to that observed in the vehicle control. Changes in activity of <25% were not considered significant. Enzymes affected by Compound 100 are plotted in an expanded graph in FIG. 12B.

Molecules are shown by their SMILES.

Consider `Cc1cc(O)cc2c1[C@]1(C)CCC3C(C)(C)CCC[C@]3(C)[C@H]1C2` (stereo partly drawn) [Compound 100], for which the “enhancement of ΔC2 SHIP activity” value on ΔC2 SHIP [1] was “could not be enhanced”. Further, the “binding of [3H]-Compound 100 to SHIP lacking its C2 domain” value on ΔC2 SHIP [2] is “not to SHIP lacking its C2 domain”. In addition, the “off-target effects on 100 other kinases and phosphatases” value in assay [3] is reported as “minimal off-target effects”.
